Assay results reported in US20250025438A1, “Derivative of aspartic acid and use thereof in treatment of metabolic diseases such as hepatic fibrosis and non-alcoholic hepatitis” (SHENZHEN JINGTAI TECHNOLOGY CO., LTD., priority 2021, published 2025).
Counter-ions that a name gives are not always drawn. Where a SMILES comes first, the peptide text is derived from it.

What was measured:
Assay type in all cases: cell-based
COL1A1 = assay: In vitro efficacy in semi-activated LX2 cells, qPCR: COL1A1; settings: 48 hours, Q-PCR; for inhibition at 50 µM: Homo sapiens, LX-2, 50 µM, read-out: COL1A1 mRNA inhibition rate
Description: (§1) Test compounds were added to the LX-2 cells respectively, and total RNA in the cells was extracted 48 hours later. This experiment was performed strictly in accordance with the instructions of the Total RNA Kit. The steps were as follows (note: this experiment was performed on ice throughout the entire process, and special RNase-free tips were used throughout the entire process): • 1) The 12-well cell culture plate was taken out from the incubator, the cell culture medium was discarded, the cells were washed twice with 1 mL of 1×PBS, and a negative pressure suction device was used to fully remove PBS; • 2) 350 μL of TRK Lysis Buffer mixture/well was prepared as needed (mixture preparation method: 1 mL of TRKLysis Buffer+20 μL of β-mercaptoethanol), vortexed and mixed well. 350 μL was added to each well of the 12-well cell culture plate, and allowed to stand at room temperature for 5 minutes to fully lyse the cells; • 3) 70% ethanol/well was prepared as needed, vortexed and mixed well. 350 μL was added to each well of the 12-well cell culture plate, mixed well by shaking, and transferred to the spin column (spin column+collection tube were assembled); • 4) Centrifugation was performed at 4° C., 12000 g for 60 sec. The waste liquid was discarded after centrifugation, while the spin column was kept; • 5) 500 μL of RNA Wash Buffer I was added, centrifuged at 4° C., 12000 g for 60 sec, the waste liquid was discarded after centrifugation, and the collection column was kept; • 6) 500 μL of RNA Wash Buffer II (confirmed that ethanol had been added) was added, centrifuged at 4° C., 12000 g for 60 sec, the waste liquid was discarded after centrifugation, and the collection column was kept; • 7) step 6) was repeated once again, centrifugation was performed at 4° C., 12000 g for 90 sec, the waste liquid was discarded after centrifugation, and the collection column was kept; • 8) Centrifugation was performed at 4° C., 12000 g for 120 sec to ensure that the spin column was fully dried; • 9) The dried spin column was inserted into a new 1.5 mL EP tube, and 30 μL of DEPC water was added to the membrane in the center of the spin column. It should be careful not to touch the EP tube cover in this step. It was allowed to stand at room temperature for 5 minutes to ensure that the RNA was fully dissolved in DEPC water. Centrifugation was performed at 4° C., 12000 g for 60 sec, and the EP tube was kept; • 10) NanoDrop ultra-micro-volume spectrophotometer was used to detect RNA concentration;
(§2) 5.2 Reverse transcription of RNA into cDNA: According to the instructions of PrimeScript™ RT reagent Kit (Perfect Real Time), the specific experimental steps were as follows:
(§3) 5.3 Q-PCR detection of target gene expression: According to the instructions of Power SYBR® Green PCR Master Mix, the specific operations were as follows:
(§4) After the reaction was completed, the amplification curve and dissolution curve of Q-PCR were confirmed, and the relative quantification method ([…]) was used to perform data analysis on the experimental results.
(§5) LX2 cells were passaged and plated normally. […] After 48 hours, the cells were collected, total RNA was extracted, and Q-PCR was used to detect the changes in the mRNA expression levels of liver fibrosis-related genes (ACTA2 encoding α-SMA, COL1A1 and COLIA2 encoding collagen I, COL3A1 encoding collagen III, SMAD3 encoding Smad3) and inflammation-related genes (IL1β encoding IL-1β, TNFα encoding TNFα) (for specific methods, see 5. Q-PCR detection of target gene expression as described above). α-SMA was a marker of hepatic stellate cell activation, and collagen I and collagen III were the main components of extracellular matrix deposition.

COL3A1 = assay: In vitro efficacy in semi-activated LX2 cells, qPCR: COL3A1; settings: 48 hours, Q-PCR; for inhibition at 50 µM: Homo sapiens, LX-2, 50 µM, read-out: COL3A1 mRNA inhibition rate
Description: as §1, §2, §3, §4, §5

Smad3 = assay: In vitro efficacy in semi-activated LX2 cells, qPCR: Smad3; settings: 48 hours, Q-PCR; for inhibition at 50 µM: Homo sapiens, LX-2, 50 µM, read-out: Smad3 mRNA inhibition rate; for inhibition of the expression of Smad3 at the mRNA level: Table 2
Description: as §1, §2, §3, §4, §5

IL-1β = assay: In vitro efficacy in semi-activated LX2 cells, qPCR: IL-1β; settings: 48 hours, Q-PCR; for inhibition at 50 µM: Homo sapiens, LX-2, 50 µM, read-out: IL-1β mRNA inhibition rate
Description: as §1, §2, §3, §4, §5

TNF-α = assay: In vitro efficacy in semi-activated LX2 cells, qPCR: TNF-α; settings: Q-PCR; for inhibition at 50 µM: Homo sapiens, LX-2, 48 hours, read-out: TNF-α mRNA inhibition rate
Description: as §1, §2, §3, §4
(§6) LX2 cells were passaged and plated normally. After adherent growth for 12 hours, 50 µM of the test compound was added. After 48 hours, the cells were collected, total RNA was extracted, and Q-PCR was used to detect the changes in the mRNA expression levels of liver fibrosis-related genes (ACTA2 encoding α-SMA, COL1A1 and COLIA2 encoding collagen I, COL3A1 encoding collagen III, SMAD3 encoding Smad3) and inflammation-related genes (IL1β encoding IL-1β, TNFα encoding TNFα) (for specific methods, see 5. Q-PCR detection of target gene expression as described above). α-SMA was a marker of hepatic stellate cell activation, and collagen I and collagen III were the main components of extracellular matrix deposition.

[1] = system: collagen I and collagen III; assay: Semi-activated LX2 cells, qPCR: collagen I and collagen III at the mRNA level; settings: 48 hours, Q-PCR, Table 2
Description: as §1, §3
as §6, with “deposition. […]” for “deposition.”

COL1A2 = assay: In vitro efficacy in semi-activated LX2 cells, qPCR: COL1A2; settings: Homo sapiens, LX-2, 48 hours, Q-PCR, read-out: COL1A2 mRNA inhibition rate
Description: as §1, §2, §3, §4, §6

α-SMA = assay: In vitro efficacy in semi-activated LX2 cells, qPCR: α-SMA; settings: 48 hours, Q-PCR; for inhibition at 50 µM: read-out: α-SMA mRNA inhibition rate
Description: as §1, §2, §3, §4, §5

O=C(O)C[C@H](NC(=O)[C@@H]1CCCN1)C(=O)O [Compound 40] (H-Pro-Asp-OH)
inhibition at 50 µM (COL1A1): 25 to 50% | inhibition at 50 µM (COL3A1): 25 to 50% | inhibition at 50 µM (Smad3): 1 to 10% | inhibition at 50 µM (IL-1β): 1 to 10% | inhibition at 50 µM (TNF-α): 1 to 10% | inhibition of the expression of collagen I and collagen III at the mRNA level [1]: could inhibit

CC(C)(C)OC(=O)C[C@H](NC(=O)OCC1c2ccccc2-c2ccccc21)C(=O)O [Compound 18]
inhibition at 50 µM (COL1A1): 10 to 25% | inhibition at 50 µM (COL1A2): 1 to 10% | inhibition at 50 µM (COL3A1): 1 to 10% | inhibition of the expression of collagen I and collagen III at the mRNA level [1]: could inhibit

COC(=O)C[C@H](NC(=O)OCC1c2ccccc2-c2ccccc21)C(=O)O [Compound 9]
inhibition at 50 µM (α-SMA): 1 to 10% | inhibition of the expression of Smad3 at the mRNA level (Smad3): could inhibit | inhibition at 50 µM (Smad3): 10 to 25% | inhibition at 50 µM (IL-1β): 25 to 50%

CC(C)(C)OC(=O)C[C@H](NC(=O)OC(C)(C)C)C(=O)O [Compound 17]
inhibition at 50 µM (COL1A1): 1 to 10% | inhibition at 50 µM (α-SMA): 1 to 10% | inhibition at 50 µM (Smad3): 1 to 10% | inhibition at 50 µM (TNF-α): 10 to 25%

CC(C)(C)OC(=O)[C@@H](N)CC(=O)OCc1ccccc1.Cl [Compound 42]
COL1A1 mRNA inhibition rate (COL1A1; 50 µM): C (C represented that the inhibition rate was 25% to 50%) | COL3A1 mRNA inhibition rate (COL3A1; 50 µM): E (E represented that the inhibition rate was 1% to 10%) | Smad3 mRNA inhibition rate (Smad3; 50 µM): E (E represented that the inhibition rate was 1% to 10%) | IL-1β mRNA inhibition rate (IL-1β; 50 µM): E (E represented that the inhibition rate was 1% to 10%) | TNF-α mRNA inhibition rate (TNF-α; 50 µM, 48 hours): D (D represented that the inhibition rate was 10% to 25%) | inhibition of the expression of collagen I and collagen III at the mRNA level [1]: could inhibit

N[C@@H](CC(=O)OCc1ccccc1)C(=O)O [Compound 22]
inhibition at 50 µM (COL1A1): 10 to 25% | inhibition at 50 µM (COL3A1): 1 to 10% | inhibition of the expression of Smad3 at the mRNA level (Smad3): could inhibit | inhibition at 50 µM (Smad3): 10 to 25% | inhibition at 50 µM (IL-1β): 1 to 10% | inhibition at 50 µM (TNF-α): 1 to 10% | inhibition of the expression of collagen I and collagen III at the mRNA level [1]: could inhibit

CC(C)(C)OC(=O)C[C@H](NC(=O)OCc1ccccc1)C(=O)O [Compound 16]
inhibition at 50 µM (COL1A1): 1 to 10% | inhibition at 50 µM (TNF-α): 1 to 10%

O=CN[C@@H](CC(=O)O)C(=O)O [Compound 29]
inhibition at 50 µM (COL1A1): 1 to 10% | inhibition at 50 µM (COL1A2): 1 to 10% | inhibition at 50 µM (α-SMA): 1 to 10%

CN(C)C(=O)N[C@@H](CC(=O)O)C(=O)O [Compound 62, (dimethylcarbamoyl)-L-aspartic acid]
inhibition at 50 µM (COL1A1): 1 to 10% | inhibition at 50 µM (α-SMA): 1 to 10% | inhibition at 50 µM (Smad3): 1 to 10% | inhibition at 50 µM (IL-1β): 1 to 10% | inhibition at 50 µM (TNF-α): 1 to 10%

CC(C)OC(=O)OCOC(=O)[C@H](Cc1ccccc1)NC(=O)[C@@H](N)CC(=O)O [Compound 53, (S)-3-amino-4-(((S)-1-(((isopropoxycarbonyl)oxy)methoxy)-1-oxo-3-phenylpropan-2-yl)amino)-4-oxobutyric acid hydrochloride]
inhibition at 50 µM (COL1A1): 10 to 25% | inhibition at 50 µM (COL1A2): 1 to 10% | inhibition at 50 µM (COL3A1): 10 to 25% | inhibition at 50 µM (α-SMA): 10 to 25% | inhibition of the expression of α-SMA at the mRNA level (α-SMA; Table 2): could inhibit | inhibition of the expression of collagen I and collagen III at the mRNA level [1]: could inhibit

CN(C(=O)OCC1c2ccccc2-c2ccccc21)[C@@H](CC(=O)OC(C)(C)C)C(=O)O [Compound 19]
inhibition at 50 µM (COL1A1): 10 to 25% | inhibition at 50 µM (COL1A2): 10 to 25% | inhibition at 50 µM (COL3A1): 10 to 25% | inhibition of the expression of collagen I and collagen III at the mRNA level [1]: could inhibit
